{"source": "patent US4264622A", "about": "“Tetrahydro-2H-benzo[c]pyrroles to inhibit prolactin secretion” (Eli Lilly and Company, priority 1980, dated 1981)", "test_system": "mouse", "assay": "toxicity on intraperitoneal dosage in the mouse", "assay_type": "in vivo", "experimental": "In using the compounds of this invention to inhibit prolactin secretion or to treat Parkinson's syndrome or for other pharmacologic action, a pharmaceutically active compound according to Formula I above, or a salt thereof with a pharmaceutically-acceptable acid, is administered to a subject suffering from Parkinsonism or in need of having their prolactin level reduced in an amount effective to alleviate some of the symptoms of Parkinsonism or to reduce an elevated prolactin level. Oral administration is preferred. If parenteral administration is used, the injection is preferably by the subcutaneous route using an appropriate pharmaceutical formulation. […] In particular, with intravenous or intramuscular administration, a water soluble pharmaceutically-acceptable salt is employed. For oral administration, a pharmaceutically active compound according to Formula I either as the free base or in the form of a salt thereof can also be mixed with standard pharmaceutical excipients and loaded into empty telescoping gelatin capsules or pressed into tablets. The oral dosage range is from about 0.01 to 10 mg/kg of mammalian weight and the parenteral dose range from about 0.0025 to 2.5 mg/kg of mammalian weight.", "note": "Where a name gives a salt, the structure may show the parent alone."}
{"smiles": "CCCN(CCC)C1CCc2c[nH]cc2C1", "note": "(racemic) [dl-5-di-n-propylamino-4,5,6,7-tetrahydro-2H-benzo[c]pyrrole maleate]", "values": [{"measurement": "deaths", "setting": "10-30 mg/kg", "value": "no deaths"}, {"measurement": "deaths (fatal dosages)", "setting": "100-300 mg/kg", "value": "fatal"}]}
